Assay [1] has as its target T1, FGFR3 (Homo sapiens, UniProt P22607).
T1 construct: purchased Carna
The experiment in a line: In vitro enzymology inhibitory activity (Caliper mobility shift kinase assay). It counts as biochemical. Conditions: reaction 1 hour at 28° C., FAM-labelled peptide and ATP. On the procedure:
(§1) • (1) Preparation of agents and compounds • (1) 1-fold kinase buffer without MnCl2 (50 mM HEPES, pH=7.5, 0.0015% Brij-35, 10 mM MgCl2, 2 mM DTT) • (2) 1-fold kinase buffer with MnCl2 (50 mM HEPES, pH=7.5, 0.0015% Brij-35, 10 mM MgCl2, 10 mM MnCl2, 2 mM DTT); • (3) Termination solution (100 mM HEPES, pH=7.5, 0.015% Brij-35, 0.2% Coating Reagent #3, 50 mM EDTA); • (4) 2.5-fold kinase solution (the VEGFR2, FGFR1, FGFR3, PDGFRβ kinases were added to the 1-fold kinase buffer respectively to prepare the corresponding 2.5-fold kinase solutions); • (5) 2.5-fold substrate solution: FAM-labelled peptide and ATP were added to the 1-fold kinase buffer to prepare a peptide solution; • (6) 4-fold dilution of the compound solution: the compound was accurately weighed, and dissolved in DMSO. The mixture was mixed sufficiently and evenly to prepare a 10 mM solution. Then the solution was diluted with DMSO to 500 μM, and 4-fold serial dilutions were done at 10 concentrations with a highest concentration of 50μM.
(§2) The calculated inhibition ratio (%)=(max. conversion−sample conversion)/(max. conversion−min. conversion)×100
(§3) The curve fitting was done with the software Xlfit to obtain the IC50 value.

Assay [2] deals with T2, PDGFRβ (Homo sapiens, UniProt P09619).
T2 construct: purchased BPS
T2 sequence (P09619 33-1106): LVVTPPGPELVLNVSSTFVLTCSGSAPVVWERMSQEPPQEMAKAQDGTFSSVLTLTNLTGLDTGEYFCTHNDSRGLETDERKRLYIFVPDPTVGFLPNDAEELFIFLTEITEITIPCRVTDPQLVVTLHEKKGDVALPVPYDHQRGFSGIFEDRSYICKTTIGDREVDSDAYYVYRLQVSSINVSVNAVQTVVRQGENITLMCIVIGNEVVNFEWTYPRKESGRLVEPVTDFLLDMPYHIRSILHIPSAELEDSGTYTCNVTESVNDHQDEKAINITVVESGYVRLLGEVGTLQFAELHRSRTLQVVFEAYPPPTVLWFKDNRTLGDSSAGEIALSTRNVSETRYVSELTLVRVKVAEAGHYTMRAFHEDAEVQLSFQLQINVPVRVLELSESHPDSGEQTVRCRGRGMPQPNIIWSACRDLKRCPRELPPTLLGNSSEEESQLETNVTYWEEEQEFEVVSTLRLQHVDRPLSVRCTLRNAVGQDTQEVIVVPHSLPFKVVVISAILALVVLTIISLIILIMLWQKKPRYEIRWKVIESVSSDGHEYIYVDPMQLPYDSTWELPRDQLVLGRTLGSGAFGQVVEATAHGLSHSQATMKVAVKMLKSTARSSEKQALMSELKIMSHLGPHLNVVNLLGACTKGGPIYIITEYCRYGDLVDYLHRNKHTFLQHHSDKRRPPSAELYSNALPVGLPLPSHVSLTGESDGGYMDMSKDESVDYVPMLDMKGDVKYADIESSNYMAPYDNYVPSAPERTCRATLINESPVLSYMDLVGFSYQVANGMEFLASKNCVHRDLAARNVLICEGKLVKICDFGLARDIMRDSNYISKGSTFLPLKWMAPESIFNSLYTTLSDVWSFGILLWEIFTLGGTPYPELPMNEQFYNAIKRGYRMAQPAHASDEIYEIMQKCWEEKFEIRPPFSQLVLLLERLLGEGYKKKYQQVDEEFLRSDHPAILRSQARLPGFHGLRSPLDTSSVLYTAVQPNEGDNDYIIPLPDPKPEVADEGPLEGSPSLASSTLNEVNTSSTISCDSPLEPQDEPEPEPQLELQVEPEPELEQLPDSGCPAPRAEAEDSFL
The description is as above. To be noted: reaction 5 hour at 28° C., FAM-labelled peptide and ATP. Type of assay: biochemical. The protocol:
as §1, §2, §3

Assay [3] deals with HUVEC cells. Put plainly: In vitro cellular inhibitory activity, h-VEGF-A stimulated HUVEC proliferation. Type of assay: cell-based. To be noted: Homo sapiens, h-VEGF-A 10 ng/ml, incubated for 89 hours, absorbance at 490 nm, read-out: ED50 for the HUVEC in vitro cells. On the procedure: (§4) (1) Thawing cells and Passing cells.
(§5) The 3T3 cells were resuspended in a culture medium containing 10% fetal bovine serum, wherein the cell concentration was 5×10^4/ml. The cell suspension was added to a 96-well plate with 100 μL per well, and incubated overnight; the HUVEC cells were resuspended in a culture medium containing 10% heat-inactivated fetal bovine serum, wherein the cell concentration was 7.5×10^4/ml. The cell suspension was added to a 96-well plate with 100 μL per well. • (3) Treating with drugs: the compounds were diluted to different concentrations, and 60 μLh-PDGF-BB (3T3 cells) and 40 ng/ml h-VEGF-A (HUVEC cells) were added and incubated for 1 hour. • (4) 100 μL of a solution containing the compound and h-PDGF-BB (h-VEGF-A, for the HUVEC cells) was added to a cell culture plate, wherein the final concentration of h-PDGF-BB was 10 ng/ml, the final concentration of h-VEGF-A was 10 ng/ml, and the final concentration for the compounds were 10, 3.3333, 1.1111, 0.3704, 0.1235, 0.0412, 0.0137, 0.0046, and 0.0015 μM. The plate was incubated for 40 hours, and the HUVEC cells were incubated for 89 hours. To each well was added 20 μL Promega Substrate, and the plate was incubated at 37° C. for 7.5 hours, and the HUVEC cells were incubated for 11.5 hours. Then the plate was placed in a microplate reader to read the absorbance at 490 nm. • (5) Data processing
(§6) The curve of the compound concentration vs. Net OD was plotted, wherein Net OD=Compound OD−min. OD. ED50 was calculated according to the following equation: Conc. ED50(x)=(y−b)/a, y=Calculated Net OD for IC50, a=slope, b=intercept.

Assay [4] relates to 3T3 cells. The experiment in a line: In vitro cellular inhibitory activity, h-PDGF-BB stimulated 3T3 proliferation. It counts as cell-based. Conditions: Mus musculus, NIH3T3; h-PDGF-BB 10 ng/ml, incubated for 40 hours, absorbance at 490 nm; read-out: ED50 for the 3T3 in vitro cells. On the procedure: as §4, §5, §6
The target of assay [5] is hERG potassium channel (Homo sapiens, UniProt Q12809). The experiment in a line: Inhibitory effect on hERG potassium channel with the patch clamp method. The protocol:
1. Preparations of the Solutions and the Compounds
Extracellular fluid (mM): N-2-hydroxyethylpiperazine-N′-2-ethanesulfonic acid (HEPES) 10, NaCl 145, KCl 4, CaCl2 2, MgCl2 1, Glucose 10, adjusted with 1N sodium hydroxide to pH=7.4; the osmotic pressure was adjusted to 290-300 mOsm; filtered and preserved at 4° C.
Intracellular solution (mM): KCl 120, KOH 31.25, CaCl2 5.374, MgCl2 1.75, Ethylene glycol-bis(β-aminoethyl ether)-N,N,N′,N′-tetraacetic acid (EGTA) 10, HEPES 10, Na2-ATP 4, adjusted with 1N potassium hydroxide to pH=7.2; the osmotic pressure was adjusted to 280-290 mOsm; filtered and preserved at −20° C.
Before the experiments, the above stock solutions were diluted with DMSO to the levels that were 333 or 1000 times higher than the experiment concentrations, and then diluted by 333 or 1000 folds with the extracellular fluid to the desired concentrations. The final concentration of DMSO in the extracellular fluid was 0.3% or 0.1%.
2. Electrophysiological experiment. The hERG current was recorded with whole cell patch clamp technique. A cell suspension was added to a 35 mm petri dish, and placed on the object stage of an inverted microscope. After the adherence of cells, the perfusion with the extracellular fluid was done in a perfusion rate of 1-2 ml/min. […] After establishing a whole-cell record, the holding potential was kept at −80 mV. In the voltage stimulation, the depolarization was made at the potential of +60 mV. Then, the repolarization was made at the potential of −50 mV and the hERG tail current was recorded. All of the recordings were conducted after the currents became stable. The extracellular perfusion administration started from the lower concentration, and the administration at each concentration was conducted for 5-10 mines until the current became stable and then the administration at the next concentration was conducted. 3. The Experiment Included the Following Aspects:
The hERG current was recoded on the CHO-K1 cell line stably expressing the hERG channel with the manual patch clamp technology; the inhibition ratio at each concentration was calculated according to the hERG tail current; each of the compounds was measured at five concentrations to deduce the IC50 value; two cells were measured at each concentration; and one positive control drug was used.
4. Data Collection and Processing
The stimulation and the signal collection were accomplished through A/D-D/A digital-analog conversions with Digidata 1440 (Molecular Devices) and pCLAMP software (Version 10.2, Molecular Devices); the signal was amplified with a patch clamp amplifier (Multiclamp 700B, Molecular Devices), and filtered at 1 KHz. The data were further analyzed and subjected to the curve fitting with Clampfit (Version 10.2, Molecular Devices) and Prism. The data were expressed as mean value±standard deviation. The IC50 value was obtained by the fitting based on the Logistic equation:
[formula] • y: the inhibitory percent; max: 100%; min: 0%; [drug]: the concentration of the tested substance; nH: the slope rate; IC50: the half maximal inhibitory concentration of the tested substance.

The structures appear in SMILES notation. Counter-ions that a name gives are not always drawn.

For 18 compounds, IC50 and EC50 results are on record in patent publication US9642851B2, “Indolinone derivative as tyrosine kinase inhibitor” (KBP Biosciences Co., Ltd., priority 2012, dated 2017).

hERG potassium channel, sequence (Q12809 whole entry): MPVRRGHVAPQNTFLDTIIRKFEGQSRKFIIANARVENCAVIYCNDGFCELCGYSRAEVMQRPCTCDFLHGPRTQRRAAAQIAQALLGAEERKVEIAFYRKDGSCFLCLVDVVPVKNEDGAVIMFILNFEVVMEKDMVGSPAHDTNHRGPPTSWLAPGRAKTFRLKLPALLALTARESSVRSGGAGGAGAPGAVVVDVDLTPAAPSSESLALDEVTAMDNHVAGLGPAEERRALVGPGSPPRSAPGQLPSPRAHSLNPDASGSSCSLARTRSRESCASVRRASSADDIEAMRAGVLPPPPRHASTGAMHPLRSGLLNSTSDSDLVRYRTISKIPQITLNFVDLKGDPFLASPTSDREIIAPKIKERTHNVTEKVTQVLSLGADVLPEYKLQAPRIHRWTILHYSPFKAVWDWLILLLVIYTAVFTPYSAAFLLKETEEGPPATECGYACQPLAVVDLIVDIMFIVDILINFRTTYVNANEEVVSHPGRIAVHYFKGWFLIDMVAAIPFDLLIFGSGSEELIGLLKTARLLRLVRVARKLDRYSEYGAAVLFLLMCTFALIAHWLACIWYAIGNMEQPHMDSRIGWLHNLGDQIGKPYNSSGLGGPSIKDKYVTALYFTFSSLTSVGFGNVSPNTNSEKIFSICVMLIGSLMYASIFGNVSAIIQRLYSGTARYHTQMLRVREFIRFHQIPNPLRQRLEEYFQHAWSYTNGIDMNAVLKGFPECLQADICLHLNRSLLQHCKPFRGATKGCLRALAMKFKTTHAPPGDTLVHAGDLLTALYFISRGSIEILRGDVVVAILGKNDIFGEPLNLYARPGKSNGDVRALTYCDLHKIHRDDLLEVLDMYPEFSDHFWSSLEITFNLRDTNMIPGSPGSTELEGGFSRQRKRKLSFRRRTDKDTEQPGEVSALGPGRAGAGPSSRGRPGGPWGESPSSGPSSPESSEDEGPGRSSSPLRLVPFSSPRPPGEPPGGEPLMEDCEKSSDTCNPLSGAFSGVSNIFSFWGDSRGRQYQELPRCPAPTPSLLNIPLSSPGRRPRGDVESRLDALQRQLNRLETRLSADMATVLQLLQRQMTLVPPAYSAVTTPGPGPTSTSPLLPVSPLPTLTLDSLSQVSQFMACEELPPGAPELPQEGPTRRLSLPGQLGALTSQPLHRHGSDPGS
T1 sequence (P22607 23-806): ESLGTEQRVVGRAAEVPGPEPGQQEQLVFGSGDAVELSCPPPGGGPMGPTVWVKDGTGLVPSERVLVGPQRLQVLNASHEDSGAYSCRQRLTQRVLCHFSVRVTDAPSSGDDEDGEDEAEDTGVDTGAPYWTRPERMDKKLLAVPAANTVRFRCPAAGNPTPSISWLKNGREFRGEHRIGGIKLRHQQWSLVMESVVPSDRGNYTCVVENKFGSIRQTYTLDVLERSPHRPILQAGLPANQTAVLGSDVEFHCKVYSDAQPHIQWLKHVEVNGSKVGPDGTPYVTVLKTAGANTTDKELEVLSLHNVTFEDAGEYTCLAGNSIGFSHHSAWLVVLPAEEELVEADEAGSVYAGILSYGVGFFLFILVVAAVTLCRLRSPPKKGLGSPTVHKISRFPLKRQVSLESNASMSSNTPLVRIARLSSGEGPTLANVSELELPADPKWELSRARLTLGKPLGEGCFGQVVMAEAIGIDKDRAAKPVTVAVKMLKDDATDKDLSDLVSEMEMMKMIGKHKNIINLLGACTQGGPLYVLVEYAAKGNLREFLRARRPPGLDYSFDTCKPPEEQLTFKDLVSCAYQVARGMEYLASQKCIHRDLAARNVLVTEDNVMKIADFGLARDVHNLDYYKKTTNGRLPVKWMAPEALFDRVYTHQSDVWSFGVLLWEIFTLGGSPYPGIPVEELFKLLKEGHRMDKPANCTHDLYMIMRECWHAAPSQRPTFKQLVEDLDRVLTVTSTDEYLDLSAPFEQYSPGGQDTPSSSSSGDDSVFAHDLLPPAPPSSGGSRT

For the compound `COC(=O)c1ccc2c(c1)NC(=O)/C2=C(\Nc1ccc2c(c1)CCN2C(=O)CN(C)C)c1ccccc1` [Compound 2 hydrochloride, methyl(Z)-3-((1-(2-(dimethylamino)acetyl)indolin-5-ylamino)(phenyl)methylene)-2oxoindoline-6-carboxylate hydrochloride], the IC50 turned out to be 280 nM in assay [1] and 15 nM in assay [2].

On to `COC(=O)c1ccc2c(c1)NC(=O)/C2=C(\Nc1ccc2c(c1)CCN2C(=O)CN1CCN(C)CC1)c1ccc(F)cc1` [Compound 3], for which the figures for the EC50 in assay [3] and in assay [4] were 180 to 260 nM and 1300 to 1900 nM, respectively.

Take `CCOC(=O)c1ccc2c(c1)NC(=O)/C2=C(\Nc1ccc2c(c1)CCN2C(=O)CN1CCN(C)CC1)c1ccccc1` [Compound 4]: the EC50 in assay [3] is 120 to 170 nM. Turning to `COC(=O)c1ccc2c(c1)NC(=O)/C2=C(\Nc1ccc2c(c1)CCN2C(=O)CC1CCN(C)CC1)c1ccccc1` [Compound 5], the EC50 in assay [3] fell in the range of 100 to 150 nM; in assay [4], 820 to 1240 nM.

For the compound `COC(=O)c1ccc2c(c1)NC(=O)/C2=C(\Nc1ccc2c(c1)CCN2C(=O)CCC(=O)N(C)C)c1ccccc1` [Compound 6 hydrochloride], in assay [3], the EC50 was in the range of 190 to 280 nM. For `COC(=O)c1ccc2c(c1)NC(=O)/C2=C(\Nc1ccc2c(c1)CCN2C(=O)CN1CCOCC1)c1ccccc1` [Compound 7 hydrochloride], in assay [4], the EC50 is 50 to 70 nM. As for `COC(=O)c1ccc2c(c1)NC(=O)/C2=C(\Nc1ccc2c(c1)CCN2C(=O)CN1CCOCC1)c1ccccc1` [Compound 7], in assay [5], the IC50 was more than 30000 nM. Further, the EC50 in assay [3] is 70 to 100 nM. With `COC(=O)c1ccc2c(c1)NC(=O)/C2=C(\Nc1ccc2c(c1)CCN2C(=O)CN1CCC(O)CC1)c1ccccc1` [Compound 8], the EC50 in assay [3] is 70 to 100 nM. In assay [5], `COC(=O)c1ccc2c(c1)NC(=O)/C2=C(\Nc1ccc2c(c1)CCN2C(=O)CN1CCOCC1)c1ccc(F)cc1` [Compound 9, methyl(Z)-3-((4-fluorophenyl)(1-(2-morpholinylacetyl)indolin-5-ylamino)methylene)-2-oxoindoline-6-carboxylate] came in with a half-maximal inhibitory concentration (IC50) of more than 30000 nM.

In assay [5], `CCOC(=O)c1ccc2c(c1)NC(=O)/C2=C(\Nc1ccc2c(c1)CCN2C(=O)CN1CCOCC1)c1ccccc1` [Compound 10, ethyl(Z)-3-((1-(2-morpholinylacetyl)indolin-5-ylamino)(phenyl)methylene)-2-oxoindoline-6-carboxylate] yielded an IC50 of more than 30000 nM. On to `COC(=O)c1ccc2c(c1)NC(=O)/C2=C(\Nc1ccc2c(c1)CCN2C(=O)CN1CC(C)OC(C)C1)c1ccccc1` (centres unmarked) [Compound 11 hydrochloride, methyl(Z)-3-((1-(2-(2,6-dimethylmorpholine)acetyl)indolin-5-ylamino)(phenyl)methylene)-2-oxoindoline-6-carboxylate], for which, in assay [3], the EC50 lay within 50 to 80 nM.

Regarding `COC(=O)c1ccc2c(c1)NC(=O)/C2=C(\Nc1ccc2c(c1)CCN2C(=O)CN1CC(C)OC(C)C1)c1ccccc1` (centres unmarked) [Compound 11, methyl(Z)-3-((1-(2-(2,6-dimethylmorpholine)acetyl)indolin-5-ylamino)(phenyl)methylene)-2-oxoindoline-6-carboxylate], the IC50 in assay [5] was more than 30000 nM. On to `COC(=O)c1ccc2c(c1)NC(=O)/C2=C(\Nc1ccc2c(c1)CCN2C(=O)CN1CCCC1=O)c1ccccc1` [Compound 12 hydrochloride, methyl(Z)-3-((1-(2-(2-pyrrolidon-1-yl)acetyl)indolin-5-ylamino)(phenyl)methylene)-2-oxoindoline-6-carboxylate], for which, in assay [3], the EC50 fell in the range of 20 to 30 nM. Moreover, the values for the 50% inhibitory concentration (IC50) in assay [1] and in assay [2] were 1720 nM and 19 nM, respectively. In turn, `COC(=O)c1ccc2c(c1)NC(=O)/C2=C(\Nc1ccc2c(c1)CCN2C(=O)CN1CCCC1=O)c1ccccc1` [Compound 12, methyl(Z)-3-((1-(2-(2-pyrrolidon-1-yl)acetyl)indolin-5-ylamino)(phenyl)methylene)-2-oxoindoline-6-carboxylate] came in with a concentration for half-maximal inhibition (IC50) in assay [5] of more than 30000 nM. Regarding `COC(=O)c1ccc2c(c1)NC(=O)/C2=C(\Nc1ccc2c(c1)CCN2C(=O)Cn1cncn1)c1ccccc1` [Compound 13, methyl(Z)-3-((1-(2-(1H-1,2,4-triazol-1-yl)acetyl)indolin-5-ylamino)(phenyl)methylene)-2-oxoindoline-6-carboxylate], the IC50 in assay [5] is more than 30000 nM.

Turning to `COC(=O)c1ccc2c(c1)NC(=O)/C2=C(\Nc1ccc2c(c1)CCN2C(=O)Cn1cccn1)c1ccccc1` [Compound 14 hydrochloride, methyl(Z)-3-((1-(2-(1H-pyrazol-1-yl)acetyl)indolin-5-ylamino)(phenyl)methylene)-2-oxoindoline-6-carboxylate], the EC50 in assay [3] is 70 to 100 nM. Moreover, the half-maximal inhibitory concentration (IC50) was determined as 4020 nM in assay [1] and 24 nM in assay [2]. For the compound `COC(=O)c1ccc2c(c1)NC(=O)/C2=C(\Nc1ccc2c(c1)CCN2C(=O)Cn1cccn1)c1ccccc1` [Compound 14, methyl(Z)-3-((1-(2-(1H-pyrazol-1-yl)acetyl)indolin-5-ylamino)(phenyl)methylene)-2-oxoindoline-6-carboxylate], the concentration for half-maximal inhibition (IC50) in assay [5] was more than 30000 nM.

Consider `COC(=O)c1ccc2c(c1)NC(=O)/C2=C(\Nc1ccc(N(C)C(=O)CN2CCN(C)CC2)cc1)c1ccccc1` [Intedanib (BIBF-1120), Intedanib, reference compound], for which, in assay [5], the 50% inhibitory concentration (IC50) was determined as 4900 nM.
